Assay results as given in publication PMC6928947, “Benzo[b]tellurophenes as a Potential Histone H3 Lysine 9 Demethylase (KDM4) Inhibitor” (International Journal of Molecular Sciences, 2019).

Target: T1, KDM4A (Homo sapiens, UniProt O75164)
T1 sequence (O75164 2-1064): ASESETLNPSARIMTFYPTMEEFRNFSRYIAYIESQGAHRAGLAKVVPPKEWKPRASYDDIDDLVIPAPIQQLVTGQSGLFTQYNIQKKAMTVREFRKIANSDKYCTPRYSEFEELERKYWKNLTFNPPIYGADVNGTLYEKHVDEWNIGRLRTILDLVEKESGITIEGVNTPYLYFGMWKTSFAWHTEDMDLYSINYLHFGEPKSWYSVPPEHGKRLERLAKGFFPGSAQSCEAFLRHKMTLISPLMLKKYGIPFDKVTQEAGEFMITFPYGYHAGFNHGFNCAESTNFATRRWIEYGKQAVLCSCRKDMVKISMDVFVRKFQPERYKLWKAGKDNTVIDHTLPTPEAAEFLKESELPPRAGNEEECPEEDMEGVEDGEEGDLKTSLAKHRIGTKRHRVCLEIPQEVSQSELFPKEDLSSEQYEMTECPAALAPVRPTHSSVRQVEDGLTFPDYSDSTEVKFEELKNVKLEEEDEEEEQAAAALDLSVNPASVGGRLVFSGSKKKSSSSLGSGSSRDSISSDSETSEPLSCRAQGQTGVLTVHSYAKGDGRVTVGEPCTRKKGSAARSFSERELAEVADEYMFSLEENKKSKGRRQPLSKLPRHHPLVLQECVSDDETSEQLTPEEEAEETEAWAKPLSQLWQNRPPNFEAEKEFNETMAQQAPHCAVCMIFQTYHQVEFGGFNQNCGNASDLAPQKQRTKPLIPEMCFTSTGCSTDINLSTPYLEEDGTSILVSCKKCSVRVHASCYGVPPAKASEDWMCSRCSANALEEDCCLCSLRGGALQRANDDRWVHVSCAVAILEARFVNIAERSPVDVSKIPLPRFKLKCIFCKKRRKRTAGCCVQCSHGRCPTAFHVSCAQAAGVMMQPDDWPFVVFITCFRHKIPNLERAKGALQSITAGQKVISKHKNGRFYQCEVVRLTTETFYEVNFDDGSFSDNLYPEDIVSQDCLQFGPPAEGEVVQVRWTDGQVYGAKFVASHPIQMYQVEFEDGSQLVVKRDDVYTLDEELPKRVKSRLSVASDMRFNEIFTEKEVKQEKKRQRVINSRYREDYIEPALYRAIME
Test: FDH-coupled demethylase assay, recombinant KDM4A with H3K9me3 peptide (Cayman kit […])
Format: biochemical

SMILES: CC(C)(C)OC(=O)NCc1cc2ccccc2[te]1 [1c, tert-Butyl benzo[b]tellurophen-2-ylmethylcarbamate]
- IC50: 30.2 ± 4.6 µM
